# Target: GPR84 (Homo sapiens, UniProt Q9NQS5)
# Test: GPR84 antagonistic activity, calcium flux (Fluo-4) assay with agonist 6-OAU
# Format: cell-based
# Parameters: expressed in transfected cells; host or cells: HEK293
# Settings: not given
# Method: The human GPR84 cell line was obtained by transfecting a HEK293 cell line with a plasmid encoding GPR84 and Gα16 proteins. Fluorescent dye Fluo-4AM was purchased from Invitrogen.
# Intracellular Ca^2+ ion is a very important second messenger of G protein-coupled receptor signaling pathway. […] Fluo-4 is a Ca^2+ ion-specific fluorescent probe that binds quantitatively to Ca^2+ ions and emits fluorescence.
# Detection of receptor inhibitory effect by GPR84 antagonist: After incubated with fluorescent dye Fluo-4, GPR84 cells were incubated with different concentrations of antagonistic compounds for a period of time to occupy the binding site of agonist to GPR84 (antagonistic binding site). A certain concentration of agonist (6-n-octylaminouracil, 6-OAU) was added to compete with the antagonist compound for binding sites. […] The half-inhibitory concentration (IC50) of the compound was calculated by using GraphPad PRISM software.
# The above ingredients were weighed and dissolved in ultrapure water. pH was adjusted to 7.4 by using hydrochloric acid or NaOH solution. The mixture was filtered and stored at 4° C. for one month.
# The buffer was prepared on site.
# The cells were seeded in a 96-well plate at a density of 4×10^4 cells/well. After 24 hours of culture, the culture medium was removed, and 40 μL of Fluo-4AM fluorescent staining solution was added to each well and incubated in a 37° C. incubator for 40 minutes. After the dye was aspirated and discarded, 50 μL of the tested compound was added and incubated at room temperature for 10 minutes.
# GPR84, sequence (Q9NQS5 whole entry): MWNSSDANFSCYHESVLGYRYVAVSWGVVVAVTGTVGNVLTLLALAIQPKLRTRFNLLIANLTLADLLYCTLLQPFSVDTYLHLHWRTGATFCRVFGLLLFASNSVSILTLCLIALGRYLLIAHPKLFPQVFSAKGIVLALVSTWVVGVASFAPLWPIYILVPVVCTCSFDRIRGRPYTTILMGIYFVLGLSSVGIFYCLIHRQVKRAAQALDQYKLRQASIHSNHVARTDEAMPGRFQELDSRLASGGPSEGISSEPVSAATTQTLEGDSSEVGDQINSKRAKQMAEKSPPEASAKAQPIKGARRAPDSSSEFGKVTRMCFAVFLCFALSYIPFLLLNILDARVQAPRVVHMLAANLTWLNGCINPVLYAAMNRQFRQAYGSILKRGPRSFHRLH
row,Compound,IC50 [nM]
1,COc1cccc2c1Sc1ccccc1C=C2OP(=O)(O)Oc1c(C(C)C)cccc1C(C)C [LSX496],1000 to 10000
2,CCCCCCCCP(=O)(O)OC1=Cc2ccccc2Sc2c(OC)cccc21 [LSX432],100 to 1000
3,CCCCCc1ccc(OP(=O)(O)OC2=Cc3ccccc3Sc3c(OC)cccc32)cc1 [LSX482c],100 to 1000
4,COc1cccc2c1Sc1ccccc1C=C2OP(=O)(O)Oc1ccc(Br)cc1 [LSX491a],100 to 1000
5,COc1cccc2c1Sc1ccccc1C=C2OP(=O)(O)Oc1ccc(F)cc1 [LSX430],1000 to 10000
6,COc1ccc(OP(=O)(O)OC2=Cc3ccccc3Sc3c(OC)cccc32)cc1 [LSX442],100 to 1000
7,COc1cccc2c1Sc1ccccc1C=C2OP(=O)(O)Oc1ccc2ccccc2c1 [LSX462b],100 to 1000
8,COc1cccc2c1Sc1ccccc1C=C2OP(=O)(O)Oc1ccc([N+](=O)[O-])cc1 [LSX457],1000 to 10000
9,CCCCCc1cc(CCCCC)cc(OP(=O)(O)OC2=Cc3ccccc3Sc3c(OC)cccc32)c1 [LSX552],100 to 1000
10,COc1cccc2c1Sc1ccccc1C=C2OP(=O)(O)Oc1ccc(Oc2ccccc2)cc1 [LSX504],1000 to 10000
11,COc1cccc2c1Sc1ccccc1C=C2OP(=O)(O)OC1CCOC1 (stereo not shown) [LSX406],1000 to 10000
12,COc1cccc2c1Sc1ccccc1C=C2OP(=O)(O)Oc1cccc2ccccc12 [LSX462a],100 to 1000
13,COc1cccc2c1Sc1ccccc1C=C2OP(=O)(O)Oc1cc(Cl)ccc1Cl [LSX480],100 to 1000
14,COc1cccc2c1Sc1ccccc1C=C2OP(=O)(O)Oc1cc(C(C)C)ccc1C [LSX468b],100 to 1000
15,CCCCCc1cccc(OP(=O)(O)OC2=Cc3ccccc3Sc3c(OC)cccc32)c1 [LSX482b],< 100
16,COc1cccc2c1Sc1ccccc1C=C2OP(=O)(O)Oc1ccccc1C(C)C [LSX454],1000 to 10000
17,COc1cccc2c1Sc1ccccc1C=C2OP(=O)(O)Oc1cc(C)ccc1C(C)C [LSX468a],100 to 1000
18,CCCCCc1ccccc1OP(=O)(O)OC1=Cc2ccccc2Sc2c(OC)cccc21 [LSX482a],100 to 1000

# Same assay, conditions: HEK293 cells with GPR84 and Gα16; Fluo-4 calcium signal; agonist 6-OAU around EC80
row,Compound,IC50 [nM]
1,CC1(C)[C@@H]2CC[C@@]1(C)[C@H](OP(=O)(O)OC1=Cc3c(Cl)cccc3Sc3ccccc31)C2 [LSX476g],< 100

# Same assay, conditions: HEK293 cells with GPR84 and Gα16; Fluo-4 calcium signal; agonist 6-OAU around EC80; read-out: IC50
row,Compound,IC50 [nM]
1,COc1cccc2c1Sc1ccccc1C=C2OP(=O)(O)N1CCC(C)(C)CC1 [LSX431],1000 to 10000

# Same assay, conditions: IC50, HEK293 cells with GPR84 and Gα16; Fluo-4 calcium signal; agonist 6-OAU around EC80
row,Compound,IC50 [nM]
1,CC1(C)[C@@H]2CC[C@@](C)(C2)[C@@H]1OP(=O)(O)OC1=Cc2ccccc2Oc2ccccc21 [LSX426j],1000 to 10000
2,COc1cccc2c1Sc1ccccc1C=C2OP(=O)(O)OC [LSX350],1000 to 10000
3,COc1cccc2c1Sc1ccccc1C=C2OP(=O)(O)OC12CC3CC(C1)C(Nc1ncnc4[nH]ccc14)C(C3)C2 (stereo not shown) [LSX602],< 100
4,COc1cccc2c1Sc1ccccc1C=C2OP(=O)(O)OCCCCCCCCF [LSX466],1000 to 10000
5,COc1cccc2c1Sc1ccccc1C=C2OP(=O)(O)O[C@@H]1C[C@H](C)CC[C@H]1C(C)C [LSX474a],< 100
6,COc1cccc2c1Sc1ccccc1C=C2OP(=O)(O)OCCCNC(=O)CC[C@@H](C)[C@H]1CC[C@H]2[C@@H]3[C@H](O)C[C@@H]4C[C@H](O)CC[C@]4(C)[C@H]3C[C@H](O)[C@]12C [LSX784],1000 to 10000
7,COc1cccc2c1Sc1ccccc1C=C2OP(=O)(O)OCCc1ccccc1 [LSX440],1000 to 10000
8,COc1cccc2c1Sc1ccccc1C=C2OP(=O)(O)OC1CCCCC1C (stereo not shown) [LSX432-2a],1000 to 10000
9,COc1cccc2c1Sc1ccccc1C=C2OP(=O)(O)OC1CCC(C(C)(C)C)CC1 (stereo not shown) [LSX474-2],100 to 1000
10,CC1(C)[C@H]2CC[C@]1(C)[C@H](OP(=O)(O)OC1=Cc3c(Cl)cccc3Sc3ccccc31)C2 (racemic) [LSX476d],100 to 1000
11,COc1cccc2c1Oc1ccccc1C=C2OP(=O)(O)O[C@@H]1C(C)(C)[C@@H]2CC[C@@]1(C)C2 [LSX456j],1000 to 10000
12,COc1cccc2c1Sc1ccccc1C=C2OP(=O)(O)O[C@@H]1CC[C@@]2(C)C(C1)C[C@@H](O)[C@H]1[C@@H]3CC[C@H]([C@H](C)CCC(=O)O)[C@@]3(C)CC[C@@H]12 (stereo partly shown) [LSX710],100 to 1000
13,COc1cccc2c1Sc1ccccc1C=C2OP(=O)(O)O[C@H]1C[C@@H](C)CC[C@@H]1C(C)C [LSX474b],< 100
14,COc1cccc2c1Sc1ccccc1C=C2OP(=O)(O)OC1C(C)(C)CCCC1(C)C [LSX474-3],100 to 1000
15,CCCCCCCCOP(=O)(O)OC1=Cc2c(Cl)cccc2Sc2ccccc21 [LSX452],100 to 1000
16,CC1CC(C(C)(C)C)C(OP(=O)(O)OC2=Cc3c(Cl)cccc3Sc3ccccc32)C(C(C)(C)C)C1 (stereo not shown) [LSX548],1000 to 10000
17,CC1(C)[C@@H]2CC[C@@](C)(C2)[C@@H]1OP(=O)(O)OC1=Cc2c(F)cccc2Sc2ccccc21 [LSX460j],100 to 1000
18,CC1(C)[C@@H]2CC[C@@]1(C)[C@H](OP(=O)(O)OC1=Cc3c(Cl)cccc3Sc3ccccc31)C2 (racemic) [LSX476b],< 100
19,CC/C=C\CCCCOP(=O)(O)OC1=Cc2ccccc2Sc2c(OC)cccc21 [LSX446],100 to 1000
20,COc1cccc2c1Sc1ccccc1C=C2OP(=O)(O)OC12CC3CC(C)(CC(C)(C3)C1)C2 [LSX498],100 to 1000

row,Compound,IC50 [nM]
1,CC1(C)[C@H]2CC[C@]1(C)[C@@H](OP(=O)(O)OC1=Cc3c(Cl)cccc3Sc3ccccc31)C2 [LSX476h],100 to 1000
2,CCCCCCOP(=O)(O)OC1=Cc2ccccc2Sc2c(OC)cccc21 [LSX420-3],100 to 1000
3,COc1cccc2c1Sc1ccccc1C=C2OP(=O)(O)OC1C(C)CCCC1C (stereo not shown) [LSX446-2],1000 to 10000
4,CC1(C)[C@H]2CC[C@]1(C)[C@H](OP(=O)(O)OC1=Cc3c(Cl)cccc3Sc3ccccc31)C2 [LSX476a],< 100
5,COc1cccc2c1Sc1ccccc1C=C2OP(=O)(O)OCC1CC2CCC1C2 (stereo not shown) [LSX444-2],100 to 1000
6,COc1cccc2c1Sc1ccccc1C=C2OP(=O)(O)OCCCCCCCCBr [LSX527],100 to 1000
7,CC1(C)[C@@H]2CC[C@@]1(C)[C@@H](OP(=O)(O)OC1=Cc3c(Cl)cccc3Sc3ccccc31)C2 [LSX476c],100 to 1000
8,CC1(C)[C@H]2CC[C@]1(C)[C@H](OP(=O)(O)OC1=Cc3ccccc3Sc3c(OC(F)(F)F)cccc31)C2 [LSX526a],100 to 1000
9,COc1cccc2c1Sc1ccccc1C=C2OP(=O)(O)O[C@@H]1CC[C@@]2(C)C(CC[C@H]3[C@@H]4CC[C@H]([C@H](C)CCC(=O)O)[C@@]4(C)CC[C@@H]32)C1 (stereo partly shown) [LSX694],100 to 1000
10,CC1(C)[C@H]2CC[C@]1(C)[C@H](OP(=O)(O)OC1=Cc3ccccc3Sc3ccccc31)C2 [LSX442a],100 to 1000
11,CC1(C)[C@H]2CC[C@]1(C)[C@H](OP(=O)(O)OC1=Cc3c(F)cccc3Sc3ccccc31)C2 [LSX460a],100 to 1000
12,COc1cccc2c1Sc1ccccc1C=C2OP(=O)(O)OC12CC3CC(CC(C3)C1)C2 [LSX470a],100 to 1000
13,CC1(C)[C@@H]2CC[C@@](C)(C2)[C@@H]1OP(=O)(O)OC1=Cc2ccccc2Sc2c(OC(F)(F)F)cccc21 [LSX526j],< 100
14,CC1(C)[C@@H]2CC[C@@](C)(C2)[C@@H]1OP(=O)(O)OC1=Cc2ccccc2Sc2ccccc21 [LSX442j],1000 to 10000
15,COc1cccc2c1Sc1ccccc1C=C2OP(=O)(O)OC12CC3CC(C1)C(Nc1c(C(N)=O)cnc4[nH]ccc14)C(C3)C2 (stereo not shown) [LSX644],1000 to 10000
16,COC(=O)CCCCCCCOP(=O)(O)OC1=Cc2ccccc2Sc2c(OC)cccc21 [LSX492],1000 to 10000
17,COc1cccc2c1Sc1ccccc1C=C2OP(=O)(O)OC1CCC(C)CC1 (stereo not shown) [LSX432-2c],1000 to 10000
18,COc1cccc2c1Sc1ccccc1C=C2OP(=O)(O)O[C@@H]1CC[C@@]2(C)[C@@H](C1)C[C@@H](O)[C@@H]1[C@@H]2C[C@H](O)[C@]2(C)[C@@H]([C@H](C)CCC(=O)O)CC[C@@H]12 [LSX726],1000 to 10000
19,COc1cccc2c1Sc1ccccc1C=C2OP(=O)(O)OC1C2CC3CC(C2)CC1C3 (stereo not shown) [LSX470b],100 to 1000
20,CCCCCCCCCOP(=O)(O)OC1=Cc2ccccc2Sc2c(OC)cccc21 [LSX462-3],100 to 1000

# Same assay, conditions: read-out: IC50
row,Compound,IC50 [nM]
1,COc1cccc2c1Sc1ccccc1C=C2OP(=O)(O)OC1COC(C)(C)C1 (stereo not shown) [LSX434-2],1000 to 10000

# Source: patent US20240342201A1, “ASYMMETRIC GPR84 ANTAGONIST AND USE THEREOF” (priority 2021, published 2024)
